Here are results for two molecules from US20070065898A1, “Fluorescence polarization assays for binding of caspase inhibitors and probes therefor” (Wyeth, priority 2005, published 2007).

As a reminder, the IC50 is the concentration that gives 50% inhibition. Read a high IC50 as weaker potency.

For this test, the target named is T1, caspase 3 (Homo sapiens, UniProt P42574).
T1 construct: His tag (C); made in house; host or cells: E. coli
T1 sequence (P42574 29-175 limits assumed): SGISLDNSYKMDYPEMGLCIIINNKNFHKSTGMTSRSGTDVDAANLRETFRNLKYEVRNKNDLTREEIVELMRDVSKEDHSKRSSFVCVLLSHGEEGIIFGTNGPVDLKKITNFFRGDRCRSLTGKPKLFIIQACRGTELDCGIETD
T1 sequence (P42574 176-277 limits assumed): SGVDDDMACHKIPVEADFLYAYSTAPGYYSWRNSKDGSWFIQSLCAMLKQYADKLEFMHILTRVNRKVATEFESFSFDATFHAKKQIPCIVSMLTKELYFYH
Briefly: Determination of probe IC50: caspase inhibition assay, cleavage of fluorogenic substrate Ac-DEVD-AFC. To be noted: substrate Ac-DEVD-AFC 25 μM; caspase added last; cleavage monitored 90 minutes, ex 400 nm / em 505 nm. It is filed as biochemical. The protocol: This standard pharmacological test procedure to assess the inhibition of recombinant caspase 3 activity of selected compounds was adapted from Thornbery, N., J. Biol. Chem. 1997 272(29) 17907-17911 and Stennicke, H. R. et al., J. Biol. Chem. 1997 272(41) 25719-25723. The procedure used and results obtained are briefly described below.
Caspase 3 was assayed at 23° C. (room temp) in 96-well plates using the internally quenched tetrapeptide substrate N-acetyl-aspartyl-glutamyl-valyl-aspartate-7-amino-4-trifluoromethyl coumarin (Ac-DEVD-AFC purchased from Biomol). The assays are conducted at pH 7.2 in a buffered system containing 20 mM PIPES, 100 mM NaCl, 1 mM EDTA, 0.1% CHAPS, 10% sucrose and 5 mM L-cysteine. The final concentration of the substrate is 25 μM. Enzymic cleavage between the aspartate and the AFC fluorophore liberates 7-amino-4-trifluoromethyl coumarin which is detected using an excitation wavelength of 400 nm and an emission wavelength of 505 nm in a SpectraMax GeminiXS plate reader operated at room temperature. A steady state rate of substrate cleavage is obtained for analysis. […]
The substrate Ac-DEVD-AFC (25 μM) was added to varying inhibitor (probe) concentrations ranging from 20 μM to 2 nM. […] The cleavage of the substrate by the enzyme (caspase) was monitored continuously for 90 minutes by exciting the substrate at 400 nm and monitoring the fluorescence at emission at 505 nm. […]

For the molecule `CN1C(=O)C(=O)c2cc(S(=O)(=O)N3CCC[C@H]3CNC(=O)c3ccc(-c4c5ccc(=O)cc-5oc5cc(O)ccc45)c(C(=O)O)c3)ccc21` [Example 1, 2-(6-Hydroxy-3-oxo-3H-xanthen-9-yl)-5-{[({(2S)-1-[(1-methyl-2,3-dioxo-2,3-dihydro-1H-indol-5-yl)sulfonyl]pyrrolidin-2-yl}methyl)amino]carbonyl}benzoic acid], the IC50 was found to be 10 nM.

In the case of `CN1C(=O)C(=O)c2cc(S(=O)(=O)N3CCC[C@H]3CNC(=O)CCCCCNC(=O)c3ccc(-c4c5ccc(=O)cc-5oc5cc(O)ccc45)c(C(=O)O)c3)ccc21` [Example 2, 2-(6-Hydroxy-3-oxo-3H-xanthen-9-yl)-5-[({6-[({(2S)-1-[(1-methyl-2,3-dioxo-2,3-dihydro-1H-indol-5-yl)sulfonyl]pyrrolidin-2-yl}methyl)amino]-6-oxohexyl}amino)carbonyl]benzoic acid], the IC50 is 15 nM.
